# Laboratory results published in patent US20250312499A1, “KISSPEPTIN RECEPTOR (KISS1R) TARGETED THERAPEUTICS AND USES THEREOF” (priority 2024, published 2025).
# Numbered stars: 1 amine (or outer) side, 2 acyl side, 3 side chain; on linkers, the order of the positions; unused ones are H or OH. Square brackets hold non-standard residues; d marks the D form. Peptide text beside a SMILES is read from it. * marks the point of attachment. DOTA = O=C(O)CN1CCN(CC(=O)O)CCN(CC(=O)*)CCN(CC(=O)O)CC1; Ala(9-anthryl) = N[C@@H](Cc1c2ccccc2cc2ccccc12)C(=O)O; Gly(N-(3-F-4-Me-benzyl)) = Cc1ccc(CNCC(=O)*)cc1F; Butanoyl(4-(4-I-phenyl)) = O=C(CCCc1ccc(I)cc1)*; Gly(N-3-F-4-Me-benzyl) = Cc1ccc(CNCC(=O)O)cc1F; Api(1-amidino) = N=C(N)N1CCC(N)(C(=O)O)CC1; Hydrocinnamoyl(4-Me) = Cc1ccc(CCC(=O)*)cc1; Phe(4-CN) = N#Cc1ccc(C[C@H](N)C(=O)O)cc1; X3 = CNC(=N)N1CCC(N[*:1])(C(=O)[*:2])CC1; 2Nal = N[C@@H](Cc1ccc2ccccc2c1)C(=O)O; d2Nal = N[C@H](Cc1ccc2ccccc2c1)C(=O)O; 4Pal = N[C@@H](Cc1ccncc1)C(=O)O; d4Pal = N[C@H](Cc1ccncc1)C(=O)O; Cha = N[C@@H](CC1CCCCC1)C(=O)O; 4Amb = NCc1ccc(C(=O)O)cc1; Octanoyl = CCCCCCCC(=O)*; Api = NC1(C(=O)O)CCNCC1; X13 = O=C(CNCC1CCSCC1)*; PEG2 = NCCOCCOCCC(=O)O; Ahx = NCCCCCC(=O)O; azaGly = NNC(=O)O; Sar = CNCC(=O)O
# Molecular target: human kisspeptin receptor (Homo sapiens (Human), UniProt Q969F8)
# Experiment: Human KISS1R binding assay (membrane competition binding)
# Settings: 90 min at room temperature; competition with 0.2 nM [125I]-metastin (45-54); Flp-In T-Rex 293 kisspeptin membranes; metal complexes nonradioactive Ga, In, Lu; read-out: hKiSSR Binding Ki (90 min)
# Protocol: Crude membrane fractions are prepared from Flp-In T-Rex 293 (Thermo Fisher) cell line expressing the human kisspeptin receptor. The cells are grown to 85-100% confluence on standard tissue culture dishes in Dulbecco's Modified Eagles Medium (DMEM) (Corning) supplemented with 10% FBS (Gemini), 1% penicillin-streptomycin-glutamine (Gibco), 500 μg/mL hygromycin, and 15 μg/mL blastacidin. 48 hrs prior to preparing membranes 10 μg/ml of tetracycline is added to the culture media to induce receptor expression. To prepare membranes, cells are scraped and collected in 1× Dulbecco's phosphate buffered saline (Corning) and then pelleted at 1000 RPMs. The cell pellet is reconstituted in membrane preparation buffer (20 mM HEPES, 6 mM MgCl2 and 1 mM EGTA, protease inhibitor tablets (Pierce), pH 7.4) and placed in a cell disruption vessel (Parr Instrument company) at 1000 PSI for 30 min on ice. The pressurized contents are then released and spun down at 1000 RPMs and the supernatant is collected and further centrifuged at 15,000 RPMs to pellet the membranes. The membrane pellet is resuspended in membrane preparation buffer, snap frozen and stored at −80° C. for later use.
# The human kisspeptin membrane binding assay utilizes the following components: radiolabel [^125I]-metastin (45-54) (human) (Perkinhmer), crude Flp-In T-Rex 293 kisspeptin membranes, and competing small molecule and peptide ligands. The assay is initiated by combining in assay buffer (50 mM TrisHCl, 5 mM MgCl2, 2 mM EGTA, 10 mM CaCl2, 0.1% BSA, pH 7.4) a dose response of competing ligand (final concentrations are typically 0-10,000 nM), 5-10 μg of Flp-In T-Rex 293 kisspeptin membranes, and 0.2 n M [^125I]-metastin (45-54) in a 96-well assay plate and allowed to incubate 90 minutes at room temperature. Assay contents are then filtered through unifilter CF/C: microplates (PerkinElmer) pre-soaked with 0.5% BSA and washed with 9×400 μL of cold wash buffer (10 mM HEPES, 500 mM NaCl, 0.1% Tween-20, pH7.4). Assay plates are read using a Microbeta^2 (PerkinElmer) and Ki values for compounds are determined using a GraphPad Prism 9.3 non-linear regression analysis.
# Sequence of human kisspeptin receptor (Q969F8 whole entry): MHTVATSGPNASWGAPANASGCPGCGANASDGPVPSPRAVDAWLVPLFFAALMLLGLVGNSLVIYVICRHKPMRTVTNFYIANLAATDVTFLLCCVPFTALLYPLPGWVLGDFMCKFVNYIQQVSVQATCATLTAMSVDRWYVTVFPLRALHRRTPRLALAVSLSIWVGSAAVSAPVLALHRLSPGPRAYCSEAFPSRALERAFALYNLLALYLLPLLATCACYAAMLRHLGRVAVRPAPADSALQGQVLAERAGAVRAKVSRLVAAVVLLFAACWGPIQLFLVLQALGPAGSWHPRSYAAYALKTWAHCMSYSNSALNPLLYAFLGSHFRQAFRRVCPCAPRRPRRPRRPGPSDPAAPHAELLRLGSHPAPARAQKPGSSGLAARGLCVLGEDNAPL
row,Structure (SMILES),Ki
1,CC(C)C[C@H](NC(=O)NNC(=O)[C@H](Cc1ccccc1)NC(=O)[C@@H](NC(=O)[C@H](CC(N)=O)NC(=O)[C@@H](Cc1ccc2ccccc2c1)NC(=O)[C@@H](Cc1ccc(O)cc1)NC(=O)CCCCCNC(=O)[C@@H](CCCCNC(=O)CCCc1ccc(I)cc1)NC(=O)CCCCCNC(=O)CN1CCN(CC(=O)O)CCN(CC(=O)O)CCN(CC(=O)O)CC1)[C@@H](C)O)C(=O)NC1(C(=O)N[C@@H](Cc2c[nH]c3ccccc23)C(N)=O)CCN(C(=N)N)CC1 [Compound 337] ({DOTA-Ahx}-[dK](Butanoyl(4-(4-I-phenyl)))[Ahx][dY][d2Nal]NTF[azaGly]L[Api(1-amidino)]W-NH2),< 10 nM
2,Cc1ccc(CNCC(=O)N2CCC(NC(=O)[C@H](CC(C)C)NC(=O)NNC(=O)[C@H](CC3CCCCC3)NC(=O)[C@@H](NC(=O)[C@H](CC(N)=O)NC(=O)[C@@H](Cc3ccncc3)NC(=O)CCCCCNC(=O)CN3CCN(CC(=O)O)CCN(CC(=O)O)CCN(CC(=O)O)CC3)[C@@H](C)O)(C(=O)N[C@@H](Cc3c[nH]c4ccccc34)C(N)=O)CC2)cc1F [Compound 314] ({DOTA-Ahx}-[d4Pal]NT[Cha][azaGly]L[Api](Gly(N-(3-F-4-Me-benzyl)))W-NH2),< 10 nM
3,Cc1ccc(CNCC(=O)N2CCC(NC(=O)[C@@H](/C=C/CNC(=O)[C@H](Cc3ccccc3)NC(=O)CCCCCNC(=O)CN3CCN(CC(=O)O)CCN(CC(=O)O)CCN(CC(=O)O)CC3)CC(C)C)(C(=O)N[C@@H](Cc3c[nH]c4ccccc34)C(N)=O)CC2)cc1F [Compound 51],< 10 nM
4,CCCCCCCC(=O)N[C@H](Cc1ccc(O)cc1)C(=O)N[C@@H](CCCCNC(=O)CN1CCN(CC(=O)O)CCN(CC(=O)O)CCN(CC(=O)O)CC1)C(=O)N[C@@H](CC(N)=O)C(=O)N[C@H](C(=O)N[C@@H](Cc1ccccc1)C(=O)NNC(=O)N[C@@H](CC(C)C)C(=O)NC1(C(=O)N[C@@H](Cc2ccc(O)cc2)C(N)=O)CCN(C(=N)N)CC1)[C@@H](C)O [Compound 332] (Octanoyl-[dY]K(DOTA)NTF[azaGly]L[Api(1-amidino)]Y-NH2),< 10 nM
5,CC(C)C[C@H](NC(=O)NNC(=O)[C@H](Cc1ccccc1)NC(=O)[C@@H](NC(=O)[C@H](CC(N)=O)NC(=O)[C@@H](Cc1ccc2ccccc2c1)NC(=O)[C@@H](Cc1ccc(O)cc1)NC(=O)CCCCCNC(=O)CN1CCN(CC(=O)O)CCN(CC(=O)O)CCN(CC(=O)O)CC1)[C@@H](C)O)C(=O)NC1(C(=O)N[C@H](Cc2c[nH]c3ccccc23)C(N)=O)CCN(C(=O)CNCC2CCSCC2)CC1 [Compound 375] ({DOTA-Ahx}-[dY][d2Nal]NTF[azaGly]L[Api](X13)[dW]-NH2),> 100 nM
6,CC(=O)N[C@H](Cc1ccc(O)cc1)C(=O)N[C@H](Cc1c[nH]c2ccccc12)C(=O)N[C@@H](CC(N)=O)C(=O)N[C@H](C(=O)N[C@@H](Cc1ccccc1)C(=O)NNC(=O)N[C@@H](CC(C)C)C(=O)NC1(C(=O)N[C@@H](Cc2c[nH]c3ccccc23)C(N)=O)CCN(C(=O)CNCc2ccc(C)c(F)c2)CC1)[C@@H](C)O [Compound 390] (Ac-[dY][dW]NTF[azaGly]L[Api](Gly(N-(3-F-4-Me-benzyl)))W-NH2),< 10 nM
7,CCc1cc(-c2ccccc2OCCNC(=O)[C@H](Cc2ccccc2)NC(=O)CCCCCNC(=O)CN2CCN(CC(=O)O)CCN(CC(=O)O)CCN(CC(=O)O)CC2)ccc1C(=O)NC1(C(=O)N[C@@H](Cc2c[nH]c3ccccc23)C(N)=O)CCN(C(=O)CNCc2ccc(C)c(F)c2)CC1 [Compound 284],10 to 100 nM
8,Cc1ccc(CNCC(=O)N2CCC(NC(=O)[C@H](CC(C)C)NC(=O)NNC(=O)[C@H](Cc3ccccc3)NC(=O)CCCCCNC(=O)CN3CCN(CC(=O)O)CCN(CC(=O)O)CCN(CC(=O)O)CC3)(C(=O)N[C@@H](Cc3ccccc3)C(N)=O)CC2)cc1F [Compound 55] ({DOTA-Ahx}-F[azaGly]L[Api](Gly(N-(3-F-4-Me-benzyl)))F-NH2),< 10 nM
9,Cc1ccc(CNCC(=O)N2CCC(NC(=O)[C@H](CC(C)C)NC(=O)NNC(=O)[C@H](Cc3ccccc3)NC(=O)[C@@H](NC(=O)[C@H](CC(N)=O)NC(=O)[C@@H](Cc3ccc4ccccc4c3)NC(=O)[C@@H](Cc3ccc(O)cc3)NC(=O)CCCCCNC(=O)CN3CCN(CC(=O)O)CCN(CC(=O)O)CCN(CC(=O)O)CC3)[C@@H](C)O)(C(=O)N[C@@H](Cc3ccc(O)cc3)C(N)=O)CC2)cc1F [Compound 367] ({DOTA-Ahx}-[dY][d2Nal]NTF[azaGly]L[Api](Gly(N-(3-F-4-Me-benzyl)))Y-NH2),< 10 nM
10,Cc1ccc(CCC(=O)NCCOCCOCCC(=O)N[C@H](Cc2ccc(O)cc2)C(=O)N[C@@H](CCCCNC(=O)CN2CCN(CC(=O)O)CCN(CC(=O)O)CCN(CC(=O)O)CC2)C(=O)N[C@@H](CC(N)=O)C(=O)N[C@H](C(=O)N[C@@H](Cc2ccccc2)C(=O)NNC(=O)N[C@@H](CC(C)C)C(=O)NC2(C(=O)N[C@@H](Cc3ccc(C#N)cc3)C(N)=O)CCN(C(=N)N)CC2)[C@@H](C)O)cc1 [Compound 333] ({Hydrocinnamoyl(4-Me)-PEG2}-[dY]K(DOTA)NTF[azaGly]L[Api(1-amidino)][Phe(4-CN)]-NH2),< 10 nM
11,Cc1ccc(CNCC(=O)N2CCC(NC(=O)[C@H](CC(C)C)NC(=O)NNC(=O)[C@H](Cc3ccccc3)NC(=O)CCCCCNC(=O)CN3CCN(CC(=O)O)CCN(CC(=O)O)CCN(CC(=O)O)CC3)(C(=O)N[C@@H](Cc3c[nH]c4ccccc34)C(N)=O)CC2)cc1F [Compound 2] ({DOTA-Ahx}-F[azaGly]L[Api](Gly(N-(3-F-4-Me-benzyl)))W-NH2),< 10 nM
12,CC(C)C[C@H](NC(=O)NNC(=O)[C@H](Cc1ccccc1)NC(=O)c1ccc(CNC(=O)[C@H](Cc2ccc3ccccc3c2)NC(=O)[C@@H](Cc2ccc(O)cc2)NC(=O)CN2CCN(CC(=O)O)CCN(CC(=O)O)CCN(CC(=O)O)CC2)cc1)C(=O)NC1(C(=O)N[C@@H](Cc2ccccc2)C(N)=O)CCN(C(=N)N)CC1 [Compound 288] ({DOTA}-[dY][2Nal][4Amb]F[azaGly]L[Api(1-amidino)]F-NH2),< 10 nM
13,Cc1ccc(CCC(=O)NCCOCCOCCC(=O)N[C@H](Cc2ccc(O)cc2)C(=O)N[C@H](CCCCNC(=O)CN2CCN(CC(=O)O)CCN(CC(=O)O)CCN(CC(=O)O)CC2)C(=O)N[C@@H](CC(N)=O)C(=O)N[C@H](C(=O)N[C@@H](Cc2ccccc2)C(=O)NNC(=O)N[C@@H](CC(C)C)C(=O)NC2(C(=O)N[C@@H](Cc3c[nH]c4ccccc34)C(N)=O)CCN(C(=N)N)CC2)[C@@H](C)O)cc1 [Compound 338] ({Hydrocinnamoyl(4-Me)-PEG2}-[dY][dK](DOTA)NTF[azaGly]L[Api(1-amidino)]W-NH2),< 10 nM
14,CNCC(=O)N1CCC(NC(=O)[C@H](CC(C)C)NC(=O)NNC(=O)[C@H](Cc2ccccc2)NC(=O)[C@@H](NC(=O)[C@H](CC(N)=O)NC(=O)[C@H](CCCCNC(=O)CN2CCN(CC(=O)O)CCN(CC(=O)O)CCN(CC(=O)O)CC2)NC(=O)[C@@H](Cc2ccc(O)cc2)NC(=O)CNCc2ccc(C)c(F)c2)[C@@H](C)O)(C(=O)N[C@@H](Cc2c[nH]c3ccccc23)C(N)=O)CC1 [Compound 386] (H-[Gly(N-3-F-4-Me-benzyl)][dY]K(DOTA)NTF[azaGly]L[Api](Sar)W-NH2),< 10 nM
15,CNC(=N)N1CCC(NC(=O)[C@H](CC(C)C)NC(=O)NNC(=O)[C@H](Cc2ccccc2)NC(=O)[C@@H](NC(=O)[C@H](CC(N)=O)NC(=O)[C@@H](Cc2ccc3ccccc3c2)NC(=O)[C@@H](Cc2ccc(O)cc2)NC(=O)CCCCCNC(=O)CN2CCN(CC(=O)O)CCN(CC(=O)O)CCN(CC(=O)O)CC2)[C@@H](C)O)(C(=O)N[C@H](Cc2c[nH]c3ccccc23)C(N)=O)CC1 [Compound 319] ({DOTA-Ahx}-[dY][d2Nal]NTF[azaGly]L[X3][dW]-NH2),> 100 nM
16,CC(C)C[C@H](NC(=O)NNC(=O)[C@H](Cc1ccccc1)NC(=O)[C@@H](NC(=O)[C@H](CC(N)=O)NC(=O)[C@H](Cc1c2ccccc2cc2ccccc12)NC(=O)[C@@H](Cc1ccc(O)cc1)NC(=O)CN1CCN(CC(=O)O)CCN(CC(=O)O)CCN(CC(=O)O)CC1)[C@@H](C)O)C(=O)NC1(C(=O)N[C@@H](Cc2ccncc2)C(N)=O)CCN(C(=N)N)CC1 [Compound 221] ({DOTA}-[dY][Ala(9-anthryl)]NTF[azaGly]L[Api(1-amidino)][4Pal]-NH2),< 10 nM
17,Cc1ccc(CNCC(=O)N2CCC(NC(=O)[C@H](CC(C)C)NC(=O)NNC(=O)[C@H](Cc3ccccc3)NC(=O)[C@@H](NC(=O)[C@H](CC(N)=O)NC(=O)[C@@H]3CCCN3C(=O)[C@@H](Cc3ccc(O)cc3)NC(=O)CCCCCNC(=O)CN3CCN(CC(=O)O)CCN(CC(=O)O)CCN(CC(=O)O)CC3)[C@@H](C)O)(C(=O)N[C@@H](Cc3c[nH]c4ccccc34)C(N)=O)CC2)cc1F [Compound 20] ({DOTA-Ahx}-[dY]PNTF[azaGly]L[Api](Gly(N-(3-F-4-Me-benzyl)))W-NH2),< 10 nM
